Patent US11161856B2 (H. Lundbeck A/S, priority 2017, dated 2021)

Experiments:
MGLL = biological target: T1, MGLL (Mus musculus, UniProt O35678); assay: In vitro competitive activity-based protein profiling, mouse brain proteome (MGLL); type: biochemical; set-up: IC50 MGLL Brain (Mouse, μM): scale not given here; conditions: for % Inh MGLL Brain (Mouse, μM): concentration not given (μM)
T1 construct: Brain; from tissue; host or cells: mouse brain proteome
T1 sequence (O35678 1-303): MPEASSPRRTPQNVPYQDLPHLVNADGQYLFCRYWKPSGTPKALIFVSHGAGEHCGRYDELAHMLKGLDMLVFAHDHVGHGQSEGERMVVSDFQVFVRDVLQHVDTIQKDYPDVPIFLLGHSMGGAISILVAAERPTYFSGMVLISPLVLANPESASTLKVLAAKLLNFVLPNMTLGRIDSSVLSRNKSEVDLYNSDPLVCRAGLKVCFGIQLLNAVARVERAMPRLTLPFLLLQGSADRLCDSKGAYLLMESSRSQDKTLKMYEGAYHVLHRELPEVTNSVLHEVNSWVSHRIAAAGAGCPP

ABHD6 = biological target: T2, ABHD6 (Mus musculus, UniProt Q8R2Y0); assay: In vitro competitive activity-based protein profiling, mouse brain proteome (ABHD6); type: biochemical; conditions: for % Inh ABHD6 Brain (Mouse, μM): mouse brain proteome, concentration not given (μM)
T2 construct: Brain; from tissue; host or cells: mouse brain proteome
T2 sequence (Q8R2Y0 1-336): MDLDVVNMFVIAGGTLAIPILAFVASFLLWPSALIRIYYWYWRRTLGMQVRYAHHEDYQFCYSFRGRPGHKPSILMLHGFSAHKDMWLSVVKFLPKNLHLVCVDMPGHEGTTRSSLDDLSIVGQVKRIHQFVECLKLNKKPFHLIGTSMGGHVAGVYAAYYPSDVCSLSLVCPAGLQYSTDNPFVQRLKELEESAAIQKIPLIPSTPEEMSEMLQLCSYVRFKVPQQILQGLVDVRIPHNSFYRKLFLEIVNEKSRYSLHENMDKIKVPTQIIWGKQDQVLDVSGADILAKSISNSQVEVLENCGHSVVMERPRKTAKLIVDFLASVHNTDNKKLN
Method: [The source words this procedure for another target and reports this target under the same test.] In Vitro Competitive Activity-Based Protein Profiling.
Proteomes (human prefrontal cortex or cell membrane fractions) (50 μL, 1.0 mg/mL total protein concentration) were preincubated with varying concentrations of inhibitors at 37° C. After 30 min, FP-Rh or HT-01 (1.0 μL, 50 μM in DMSO) was added and the mixture was incubated for another 30 min at room temperature. Reactions were quenched with SDS loading buffer (15 μL-4×) and run on SDS-PAGE.

| Compound | % Inh MGLL Brain (Mouse, μM) (MGLL) | % Inh ABHD6 Brain (Mouse, μM) (ABHD6) | IC50 MGLL Brain (Mouse, μM) (MGLL) | IC50 (ABHD6; mouse proteome) |
| --- | --- | --- | --- | --- |
| CS(=O)(=O)N1CCC2(CCN(c3cc(Cl)ccc3CN3CCN(C(=O)OC(C(F)(F)F)C(F)(F)F)CC3)CC2)C1 [Example 174, 1,1,1,3,3,3-Hexafluoropropan-2-yl 4-(4-chloro-2-(2-(methylsulfonyl)-2,8-diazaspiro[4.5]decan-8-yl)benzyl)piperazine-1-carboxylate] | ### (### is ≥75%) | # (# is ≤25%) |  |  |
| CC(=O)N1CC2(CCN(c3cc(Cl)ccc3CN3CCN(C(=O)OC(C(F)(F)F)C(F)(F)F)CC3)C2)C1 [Example 176, 1,1,1,3,3,3-Hexafluoropropan-2-yl 4-(2-(2-acetyl-2,6-diazaspiro[3.4]octan-6-yl)-4-chlorobenzyl)piperazine-1-carboxylate] | ### (### is ≥75%) | # (# is ≤25%) |  |  |
| O=C(OC(C(F)(F)F)C(F)(F)F)N1CCC2(CC1)CN(Cc1cccc(C(F)(F)F)c1)C2 [Example 89, 1,1,1,3,3,3-Hexafluoropropan-2-yl 2-(3-(trifluoromethyl)benzyl)-2,7-diazaspiro[3.5]nonane-7-carboxylate] | ### (### is ≥75%) | ### (### is ≥75%) |  |  |
| CS(=O)(=O)N1CCC2(CCN(c3cccc(C(F)(F)F)c3CN3CC4(CCN(C(=O)OC(C(F)(F)F)C(F)(F)F)CC4)C3)CC2)C1 [Example 62, 1,1,1,3,3,3-Hexafluoropropan-2-yl 2-(2-(2-(methylsulfonyl)-2,8-diazaspiro[4.5]decan-8-yl)-6-(trifluoromethyl)benzyl)-2,7-diazaspiro[3.5]nonane-7-carboxylate] | ### (### is ≥75%) | ### (### is ≥75%) |  |  |
| CCN1CCC2(CCN(c3cc(Cl)cc(CN4CCCC45CN(C(=O)OC(C(F)(F)F)C(F)(F)F)C5)c3)CC2)C1 [Example 235, 1,1,1,3,3,3-Hexafluoropropan-2-yl 5-(3-chloro-5-(2-ethyl-2,8-diazaspiro[4.5]decan-8-yl)benzyl)-2,5-diazaspiro[3.4]octane-2-carboxylate] |  | ### (### is ≥75%) |  |  |
| CC(=O)N1CC2(CCN(c3ccccc3CN3CCCCC34CCN(C(=O)OC(C(F)(F)F)C(F)(F)F)CC4)C2)C1 [Example 229, 1,1,1,3,3,3-Hexafluoropropan-2-yl 1-(2-(2-acetyl-2,6-diazaspiro[3,4]octan-6-yl)benzyl)-1,9-diazaspiro[5.5]undecane-9-carboxylate] | ## (## is between 25 and 75%) | # (# is ≤25%) |  |  |
| O=C(O)C1CCN(c2cc(Cl)ccc2CN2CCC3(CC2)CCN(C(=O)OC(C(F)(F)F)C(F)(F)F)C3)CC1 [Example 194, l-(5-Chloro-2-((2-(((1.1,1,3,3,3-hexafluoropropan-2-yl)oxy)carbonyl)-2,8-diazaspiro[4.5]decan-8-yl)methyl)phenyI)piperidine-4-carboxylic acid] | ### (### is ≥75%) | # (# is ≤25%) |  |  |
| CC(=O)N1CCCc2cccc(CN3CC4(CCN(C(=O)OC(C(F)(F)F)C(F)(F)F)CC4)C3)c21 [Example 15, 1,1,1,3,3,3-Hexafluoropropan-2-yl 2-((1-acetyl-1,2,3,4-tetrahydroquinolin-8-yl)methyl)-2,7-diazaspiro[3.5]nonane-7-carboxylate] | ### (### is ≥75%) | ### (### is ≥75%) | * * * |  |
| CCN1CCCc2cccc(CN3CC4(CCN(C(=O)OC(C(F)(F)F)C(F)(F)F)CC4)C3)c21 [Example 16, 1,1,1,3,3,3-Hexafluoropropan-2-yl 2-((1-ethyl-1,2,3,4-tetrahydroquinolin-8-yl)methyl)-2,7-diazaspiro[3.5]nonane-7-carboxylate] | ### (### is ≥75%) | ### (### is ≥75%) | * * * |  |
| CC(=O)N1CCC2(CCN(c3ccccc3CN3CCN(C(=O)OC(C(F)(F)F)C(F)(F)F)CC3)C2)C1 (centres unmarked) [Example 166, 1,1,1,3,3,3-Hexafluoropropan-2-yl 4-(2-(7-acetyl-2,7-diazaspiro[4.4]nonan-2-yl)benzyl)piperazine-1-carboxylate] | ### (### is ≥75%) | # (# is ≤25%) |  |  |
| CC(=O)N1CCC2(CC1)CCN(c1cc(C(F)(F)F)ccc1CN1CCN(C(=O)OC(C(F)(F)F)C(F)(F)F)CC1)C2 [Example 197, 1.1.1,3,3.3-Hexafluoropropan-2-yl 4-(2-(8-acetyl-2,8-diazaspiro[4.5]decan-2-yl)-4-(trifluoromethyl)benzyl)pipera zine-l-carboxylate] | ### (### is ≥75%) | # (# is ≤25%) |  |  |
| O=C(OC(C(F)(F)F)C(F)(F)F)N1CCC2(CC1)CN(Cc1ccc(C(F)(F)F)cc1)C2 [Example 69, 1,1,1,3,3,3-Hexafluoropropan-2-yl 2-(4-(trifluoromethyl)benzyl)-2,7-diazaspiro[3,5]nonane-7-carboxylate] | ### (### is ≥75%) | ### (### is ≥75%) |  |  |
| O=C(OC(C(F)(F)F)C(F)(F)F)N1CC2(CCN(Cc3ccc(Cl)cc3N3CCOCC3)CC2)C1 [Example 37, 1,1,1,3,3,3-Hexafluoropropan-2-yl 7-(4-chloro-2-morpholinobenzyl)-2,7-diazaspiro[3.5]nonane-2-carboxylate] | ### (### is ≥75%) | ### (### is ≥75%) |  |  |
| CN(Cc1ccc(C(F)(F)F)cc1N1CCCC1)C1(C)CCN(C(=O)OC(C(F)(F)F)C(F)(F)F)CC1 [Example 72, 1,1,1,3,3,3-Hexafluoropropan-2-yl 4-methyl-4-(methyl(2-(pyrrolidin-1-yl)-4-(trifluoromethyl)benzyl)amino) piperidine-1-carboxylate] | ### (### is ≥75%) | # (# is ≤25%) |  |  |
| Cc1ccccc1CN1CC2(CCN(C(=O)OC(C(F)(F)F)C(F)(F)F)CC2)C1 [Example 91, 1,1,1,3,3,3-Hexafluoropropan-2-yl 2-(2-methylbenzyl)-2,7-diazaspiro[3.5]nonane-7-carboxylate] | ### (### is ≥75%) | ### (### is ≥75%) |  |  |
| O=C(OC(C(F)(F)F)C(F)(F)F)N1CC2(CCN(Cc3ccc(N4CCCC4)cc3)CC2)C1 [Example 17, 1,1,1,3,3,3-hexafluoropropan-2-yl 7-(4-(pyrrolidin-1-yl)benzyl)-2,7-diazaspiro[3.5]nonane-2-carboxylate] | ### (### is ≥75%) | ### (### is ≥75%) |  |  |
| CC(=O)N1CCCC12CCN(c1cc(C(F)(F)F)ccc1CN1CCN(C(=O)OC(C(F)(F)F)C(F)(F)F)CC1)CC2 [Example 208, 1,1,1,3,3,3-Hexafluoropropan-2-yl 4-(2-(1-acetyl-1,8-diazaspiro[4.5]decan-8-yl)-4-(trifluoromethyl)benzyl) piperazine-1-carboxylate] | ### (### is ≥75%) | # (# is ≤25%) |  |  |
| CC(=O)N1CC2(CCN(c3ccccc3CN3CCN(C(=O)OC(C(F)(F)F)C(F)(F)F)CC3)C2)C1 [Example 168, 1,1,1,3,3,3-Hexafluoropropan-2-yl 4-(2-(2-acetyl-2,6-diazaspiro[3.4]octan-6-yl)benzyl)piperazine-1-carboxylate] | ### (### is ≥75%) | # (# is ≤25%) |  |  |
| CC(=O)N1CC2CN(c3cc(C(F)(F)F)ccc3CN3CCN(C(=O)OC(C(F)(F)F)C(F)(F)F)CC3)CC2C1 (stereo not drawn) [Example 200, 1,1,1,3,3,3-Hexafluoropropan-2-yl 4-(2-(5-acetylhexahydropyrrolo[3,4-c]pyrrol-2(lH)-yl)-4-(trifluoromethyl)benzyl)pipera zine-l-carboxylate] | ### (### is ≥75%) | # (# is ≤25%) |  |  |
| O=C(OC(C(F)(F)F)C(F)(F)F)N1CCC2(CC1)CN(Cc1c(N3CCCCC3)cccc1C(F)(F)F)C2 [Example 41, 1,1,1,3,3,3-Hexafluoropropan-2-yl 2-(2-(piperidin-1-yl)-6-(trifluoromethyl)benzyl)-2,7-diazaspiro[3.5]nonane-7-carboxylate] | ### (### is ≥75%) | ## (## is between 25 and 75%) |  | 100 to 1000 nM |
| O=C(OC(C(F)(F)F)C(F)(F)F)N1CCC2(CC1)CN(Cc1cccc(N3CCCC3)c1)C2 [Example 94, 1,1,1,3,3,3-Hexafluoropropan-2-yl 2-(3-(pyrrolidin-1-yl)benzyl)-2,7-diazaspiro[3.5]nonane-7-carboxylate] | ### (### is ≥75%) | ### (### is ≥75%) |  |  |
